Patent publication US12686689B2, “HPK1 inhibitor, preparation method therefor and use thereof” (WIGEN BIOMEDICINE TECHNOLOGY (SHANGHAI) CO., LTD., priority 2020, dated 2026)

The compounds below were run against HPK1 (Homo sapiens, UniProt Q92918) (assay: Inhibitory effect against enzyme activity of HPK1 (lantha Screen, PKC substrate)). Conditions: class symbols defined as IC50 ranges, read-out: Inhibition rate (%).
Assay type: biochemical
Procedure: Example 130: Assay of Inhibitory Effect of Compound Against Enzyme Activity of HPK1
The inhibitory effect of the compound against the enzyme activity of HPK1 was determined by using a lantha Screen method with PKC as a substrate. The process comprises the following specific steps: the HPK1 protein was incubated with the serially-diluted compound at 28° C. for 10 min followed by addition of fluoroescein-labeled PKC substrate and ATP to react for 90 min. After termination of the reaction, a Terbium-labeled antibody against phosphorylated PKC was added and incubated for 60 min. The energy transfer of Teribium and fluoroscein was monitored by detecting luminescence at 520 nm and 450 nm to quantify PKC as the level of phosphorylation of […]. Inhibition % and IC50 of the compound were calculated compared to the control group.

Chain of HPK1 (Q92918 whole entry): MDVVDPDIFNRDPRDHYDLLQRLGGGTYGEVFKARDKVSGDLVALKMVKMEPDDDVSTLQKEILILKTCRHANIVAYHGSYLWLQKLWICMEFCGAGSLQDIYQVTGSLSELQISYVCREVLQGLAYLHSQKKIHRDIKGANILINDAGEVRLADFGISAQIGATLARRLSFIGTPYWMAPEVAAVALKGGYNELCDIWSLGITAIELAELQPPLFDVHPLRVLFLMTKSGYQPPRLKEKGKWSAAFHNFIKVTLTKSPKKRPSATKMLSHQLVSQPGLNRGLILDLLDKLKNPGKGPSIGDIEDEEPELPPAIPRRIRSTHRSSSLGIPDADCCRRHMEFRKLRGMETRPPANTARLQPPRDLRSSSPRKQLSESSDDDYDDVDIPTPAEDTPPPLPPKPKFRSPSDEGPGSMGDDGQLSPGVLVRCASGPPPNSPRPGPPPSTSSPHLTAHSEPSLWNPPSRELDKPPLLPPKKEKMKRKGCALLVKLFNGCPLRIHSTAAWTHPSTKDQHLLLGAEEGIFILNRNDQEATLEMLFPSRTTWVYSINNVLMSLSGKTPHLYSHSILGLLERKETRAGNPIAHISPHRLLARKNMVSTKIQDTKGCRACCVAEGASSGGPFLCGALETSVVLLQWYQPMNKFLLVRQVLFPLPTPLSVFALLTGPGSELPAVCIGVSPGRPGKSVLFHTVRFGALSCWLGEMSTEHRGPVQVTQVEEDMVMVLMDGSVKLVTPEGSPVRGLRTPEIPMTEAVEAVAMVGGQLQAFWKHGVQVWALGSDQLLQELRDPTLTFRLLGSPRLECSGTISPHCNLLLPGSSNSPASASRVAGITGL

Compound | IC50
CN1CCN2c3ccc(-c4cnc5[nH]cc(-c6ccc(C(=O)N7CC(N(C)C)C7)cc6)c5c4)cc3OCC2C1 (stereo not shown) [Compound 103] | ≤ 10 nM
CN1CCN2c3ccc(-c4n[nH]c5cc(C#N)c(-c6ncccc6F)cc45)cc3OCC2C1 (stereo not shown) [Compound 42] | ≤ 10 nM
CN1CCN2c3ccc(-c4n[nH]c5cc(C#N)c(-c6cnn7ccccc67)cc45)cc3OCC2C1 (stereo not shown) [Compound 62] | 10 to 100 nM
CN(C)CCN(C)C(=O)c1ccc(-c2n[nH]c3ncc(-c4ccc5c(c4)OCC4CN(C)CCN54)nc23)cc1 (stereo not shown) [Compound 120] | ≤ 10 nM
CNCc1cc(C)c(-c2cc3c(-c4ccc5c(c4)N(C)CC4CN(C)CCN54)n[nH]c3cc2C#N)c(F)c1 (stereo not shown) [Compound 122] | ≤ 10 nM
Cc1ccc(F)c(F)c1-c1cc2c(-c3ccc4c(c3)OCC3CN(C)CCN43)n[nH]c2cc1C#N (stereo not shown) [Compound 15] | ≤ 10 nM
CNCc1cc(C)c(-c2cc3c(-c4ccc5c(c4)OCC4CN(C)CCN54)n[nH]c3cn2)c(F)c1 (stereo not shown) [Compound 69] | ≤ 10 nM
CN1CCN2c3ccc(-c4n[nH]c5cc(C#N)c(-c6c(F)cc(NC(=O)CN7CC8(COC8)C7)cc6F)cc45)cc3OCC2C1 (stereo not shown) [Compound 29] | ≤ 10 nM
COc1cccc(F)c1-c1ccc2[nH]nc(-c3ccc4c(c3)OCC3CN(C)CCN43)c2n1 (stereo not shown) [Compound 85] | 10 to 100 nM
CNCc1cc(C)c(-c2nc3c(-c4ccc5c(c4)OCC4CN(C)CCN54)c[nH]c3cc2C#N)c(F)c1 (stereo not shown) [Compound 98] | ≤ 10 nM
COc1cccc(F)c1-c1ncc2[nH]cc(-c3ccc4c(c3)OCC3CN(C)CCN43)c2n1 (stereo not shown) [Compound 94] | 10 to 100 nM
CNCc1cc(F)c(-c2cc3c(-c4ccc5c(c4)OCC4CN(C)CCN54)c[nH]c3cn2)c(F)c1 (stereo not shown) [Compound 90] | ≤ 10 nM
CN1CCN2c3ccc(-c4n[nH]c5cc(C#N)c(-c6cccc(NS(C)(=O)=O)c6F)cc45)cc3OCC2C1 (stereo not shown) [Compound 11] | 10 to 100 nM
CNCc1cc(F)c(-c2nc3c(-c4ccc5c(c4)OCC4CN(C)CCN54)n[nH]c3cc2C#N)c(F)c1 (stereo not shown) [Compound 84] | ≤ 10 nM
CN1CCN2c3ccc(-c4n[nH]c5cc(C#N)c(-c6cnc7ccnn7c6)cc45)cc3OCC2C1 (stereo not shown) [Compound 58] | ≤ 10 nM
CNS(=O)(=O)c1cccc(-c2cc3c(-c4ccc5c(c4)OCC4CN(C)CCN54)n[nH]c3cc2C#N)c1F (stereo not shown) [Compound 14] | ≤ 10 nM
CN1CCN2c3ccc(-c4n[nH]c5cc(C#N)c(-c6c(F)cc(CC#N)cc6F)cc45)cc3OCC2C1 (stereo not shown) [Compound 24] | ≤ 10 nM
COc1cccc(F)c1-c1ncc2[nH]nc(-c3ccc4c(c3)OCC3CN(C)CCN43)c2n1 (stereo not shown) [Compound 79] | 10 to 100 nM
CN1CCN2c3ccc(-c4n[nH]c5cc(C#N)c(-c6cnn7cccnc67)cc45)cc3OCC2C1 (stereo not shown) [Compound 63] | ≤ 10 nM

Compound | IC50
CN1CCN2c3ccc(-c4cnc5[nH]nc(-c6ccc(C(=O)N7CC(N(C)C)C7)cc6)c5n4)cc3OCC2C1 (stereo not shown) [Compound 118] | ≤ 10 nM
COc1ccncc1-c1cc2c(-c3ccc4c(c3)OCC3CN(C)CCN43)n[nH]c2cn1 (stereo not shown) [Compound 71] | ≤ 10 nM
CN1CCN2c3ccc(-c4n[nH]c5cc(C#N)c(-c6c(F)cc(NC(=O)CN7CCCC7)cc6F)cc45)cc3OCC2C1 (stereo not shown) [Compound 28] | ≤ 10 nM
Cc1n[nH]cc1-c1cc2c(-c3ccc4c(c3)OCC3CN(C)CCN43)n[nH]c2cn1 (stereo not shown) [Compound 72] | ≤ 10 nM
CN1CCN2c3ccc(-c4n[nH]c5cc(C#N)c(-c6ccc7nccn7c6)cc45)cc3OCC2C1 (stereo not shown) [Compound 59] | ≤ 10 nM
CNCc1cc(C)c(-c2ccc3[nH]cc(-c4ccc5c(c4)OCC4CN(C)CCN54)c3n2)c(F)c1 (stereo not shown) [Compound 101] | ≤ 10 nM
COc1cccc(F)c1-c1cc2c(-c3ccc4c(c3)OCC3CN(C)CCN43)c[nH]c2cn1 (stereo not shown) [Compound 88] | ≤ 10 nM
CN1CC(CN(C)C(=O)c2ccc(-c3c[nH]c4ncc(-c5ccc6c(c5)OCC5CN(C)CCN65)cc34)cc2)C1 (stereo not shown) [Compound 107] | ≤ 10 nM
COc1ccc(C#N)c(F)c1-c1cc2c(-c3ccc4c(c3)OCC3CN(C)CCN43)n[nH]c2cn1 (stereo not shown) [Compound 74] | 10 to 100 nM
CN1CCN2c3ccc(-c4cnc5[nH]cc(-c6ccc(C(=O)N7CC(O)C7)cc6)c5c4)cc3OCC2C1 (stereo not shown) [Compound 104] | 10 to 100 nM
CNCc1cc(F)c(-c2ccc3[nH]nc(-c4ccc5c(c4)OCC4CN(C)CCN54)c3n2)c(F)c1 (stereo not shown) [Compound 87] | 10 to 100 nM
CNCc1cc(F)c(-c2ccc3[nH]cc(-c4ccc5c(c4)OCC4CN(C)CCN54)c3n2)c(F)c1 (stereo not shown) [Compound 102] | ≤ 10 nM
CNCc1cc(F)c(-c2ncc3[nH]nc(-c4ccc5c(c4)OCC4CN(C)CCN54)c3n2)c(F)c1 (stereo not shown) [Compound 81] | 10 to 100 nM
CN1CCN2c3ccc(-c4n[nH]c5cc(C#N)c(-c6cncnc6)cc45)cc3OCC2C1 (stereo not shown) [Compound 48] | ≤ 10 nM
Cc1ccccc1-c1cc2c(-c3ccc4c(c3)OCC3CN(C)CCN43)n[nH]c2cc1C#N (stereo not shown) [Compound 3] | 10 to 100 nM
Cc1cccc(F)c1-c1cc2c(-c3ccc4c(c3)OCC3CN(C)CCN43)n[nH]c2cn1 (stereo not shown) [Compound 65] | 10 to 100 nM
CN1CCN2c3ccc(-c4n[nH]c5cnc(-c6cnn7ccccc67)cc45)cc3OCC2C1 (stereo not shown) [Compound 78] | ≤ 10 nM
CN1CCN2c3ccc(-c4n[nH]c5cc(C#N)c(-c6c(F)ccc7c6CCCC7N)cc45)cc3OCC2C1 (stereo not shown) [Compound 38] | ≤ 10 nM
COc1cccc(F)c1-c1cc2c(-c3ccc4c(c3)OCC3CN(C)CCN43)c[nH]c2cc1C#N (stereo not shown) [Compound 91] | ≤ 10 nM

Further lines, results first:

IC50 | Compound
≤ 10 nM | CN(C)CCN(C)C(=O)c1ccc(-c2c[nH]c3ncc(-c4ccc5c(c4)OCC4CN(C)CCN54)nc23)cc1 (stereo not shown) [Compound 114]
≤ 10 nM | CNCc1cc(C)c(-c2cc3c(-c4ccc5c(c4)OCC4CN(C6CC6)CCN54)n[nH]c3cc2C#N)c(F)c1 (stereo not shown) [Compound 125]
10 to 100 nM | CN1CCN2c3ccc(-c4cnc5[nH]nc(-c6ccc(C(=O)N7CC(O)C7)cc6)c5n4)cc3OCC2C1 (stereo not shown) [Compound 119]
≤ 10 nM | CNCc1cc(C)c(-c2cc3c(-c4ccc5c(c4)OCC4CN(C6COC6)CCN54)n[nH]c3cc2C#N)c(F)c1 (stereo not shown) [Compound 126]
≤ 10 nM | CNCc1cc(C)c(-c2cc3c(-c4ccc5c(c4)OCC4CNCCN54)n[nH]c3cc2C#N)c(F)c1 (stereo not shown) [Compound 123]
≥ 100 nM | CN1CCN2c3ccc(-c4n[nH]c5cc(C#N)c(-c6cccc(F)c6F)cc45)cc3OCC2C1 (stereo not shown) [Compound 7]
≤ 10 nM | CN1CCN2c3ccc(-c4cnc5[nH]cc(-c6ccc(OC7CCNCC7)cc6)c5c4)cc3OCC2C1 (stereo not shown) [Compound 109]
10 to 100 nM | CN1CCN2c3ccc(-c4n[nH]c5cnc(-c6ccc(C(=O)N7CC(N(C)C)C7)cc6)cc45)cc3OCC2C1 (stereo not shown) [Compound 76]
≤ 10 nM | CN1CCN2c3ccc(-c4n[nH]c5cc(C#N)c(-c6c(F)cc(NC(=O)CC#N)cc6F)cc45)cc3OCC2C1 (stereo not shown) [Compound 30]
10 to 100 nM | CN1CCN2c3ccc(-c4cnc5[nH]nc(-c6ccc(C(=O)N7CC(O)C7)cc6)c5c4)cc3OCC2C1 (stereo not shown) [Compound 116]
10 to 100 nM | CN1CCN2c3ccc(-c4n[nH]c5cnc(-c6c(F)cccc6F)cc45)cc3OCC2C1 (stereo not shown) [Compound 66]
10 to 100 nM | COc1cccc(F)c1-c1nc2c(-c3ccc4c(c3)OCC3CN(C)CCN43)c[nH]c2cc1C#N (stereo not shown) [Compound 97]
≤ 10 nM | COc1cccc(F)c1-c1cc2c(-c3ccc4c(c3)OCC3CN(C)CCN43)n[nH]c2cn1 (stereo not shown) [Compound 64]
≤ 10 nM | COc1ccncc1-c1cc2c(-c3ccc4c(c3)OCC3CN(C)CCN43)n[nH]c2cc1C#N (stereo not shown) [Compound 44]
≤ 10 nM | CN(C)CCN(C)C(=O)c1ccc(-c2c[nH]c3ncc(-c4ccc5c(c4)OCC4CN(C)CCN54)cc23)cc1 (stereo not shown) [Compound 105]
≤ 10 nM | CNCc1cc(F)c(-c2cc3c(-c4ccc5c(c4)OCC4CN(C)CCN54)n[nH]c3cc2C#N)c(OC)c1 (stereo not shown) [Compound 20]
≤ 10 nM | CNCc1cc(C)c(-c2nc3c(-c4ccc5c(c4)OCC4CN(C)CCN54)n[nH]c3cc2C#N)c(F)c1 (stereo not shown) [Compound 83]
≤ 10 nM | CNCc1cc(C)c(-c2cc3c(-c4ccc5c(c4)OCC4CN(C6CCN(C)CC6)CCN54)n[nH]c3cc2C#N)c(F)c1 (stereo not shown) [Compound 127]
≤ 10 nM | CNCc1cc(F)c(-c2cc3c(-c4ccc5c(c4)OCC4CN(C)CCN54)n[nH]c3cc2C#N)c(C(F)(F)F)c1 (stereo not shown) [Compound 19]
≤ 10 nM | CNC(=O)c1cncc(-c2cc3c(-c4ccc5c(c4)OCC4CN(C)CCN54)n[nH]c3cc2C#N)c1 (stereo not shown) [Compound 46]
≤ 10 nM | CN(C)CC(=O)Nc1cc(F)c(-c2cc3c(-c4ccc5c(c4)OCC4CN(C)CCN54)n[nH]c3cc2C#N)c(F)c1 (stereo not shown) [Compound 27]
≤ 10 nM | CN(C)CCN(C)C(=O)c1ccc(-c2n[nH]c3ncc(-c4ccc5c(c4)OCC4CN(C)CCN54)cc23)cc1 (stereo not shown) [Compound 117]
≤ 10 nM | CCN1CCN2c3ccc(-c4n[nH]c5cc(C#N)c(-c6c(C)cc(CNC)cc6F)cc45)cc3OCC2C1 (stereo not shown) [Compound 124]
≤ 10 nM | CNCc1cc(C)c(-c2cc3c(-c4ccc5c(c4)OCC4CN(C)CCN54)n[nH]c3cc2C#N)c(F)c1 (stereo not shown) [Compound 17]
≥ 100 nM | CN1CCN2c3ccc(-c4n[nH]c5cc(C#N)c(-c6cccc(S(C)(=O)=O)c6F)cc45)cc3OCC2C1 (stereo not shown) [Compound 13]
≤ 10 nM | CNCc1cc(C)c(-c2cc3c(-c4ccc5c(c4)OCC4CN(C)CCN54)c[nH]c3cc2C#N)c(F)c1 (stereo not shown) [Compound 92]
≤ 10 nM | CN1CC(C(O)c2ccc(-c3c[nH]c4ncc(-c5ccc6c(c5)OCC5CN(C)CCN65)cc34)cc2)C1 (stereo not shown) [Compound 111]
≤ 10 nM | CNCc1cc(C)c(-c2cc3c(-c4ccc5c(c4)OCC4CN(CCC#N)CCN54)n[nH]c3cc2C#N)c(F)c1 (stereo not shown) [Compound 129]
10 to 100 nM | COc1cccc(F)c1-c1nc2c(-c3ccc4c(c3)OCC3CN(C)CCN43)n[nH]c2cc1C#N (stereo not shown) [Compound 82]
